PMC5487351, “Galactosylsphingamides: new α-GalCer analogues to probe the F’-pocket of CD1d” (Scientific Reports, 2017)

Target: T1, mCD1d (mCD1-β2M) (Mus musculus, UniProt P11609)
T1 construct: gene Cd1d1; soluble CD1d ectodomain with beta2-microglobulin, insect cells; glycolipid-loaded; with Beta-2-microglobulin
T1 sequence (P11609 19-297): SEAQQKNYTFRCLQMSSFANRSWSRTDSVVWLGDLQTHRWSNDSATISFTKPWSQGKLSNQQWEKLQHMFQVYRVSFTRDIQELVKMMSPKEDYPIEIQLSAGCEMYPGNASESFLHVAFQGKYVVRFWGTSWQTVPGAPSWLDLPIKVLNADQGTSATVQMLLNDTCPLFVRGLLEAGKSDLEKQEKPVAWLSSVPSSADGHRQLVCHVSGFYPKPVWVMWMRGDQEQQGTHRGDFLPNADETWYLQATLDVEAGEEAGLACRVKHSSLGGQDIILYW
T1 sequence (P01887 21-119 partner): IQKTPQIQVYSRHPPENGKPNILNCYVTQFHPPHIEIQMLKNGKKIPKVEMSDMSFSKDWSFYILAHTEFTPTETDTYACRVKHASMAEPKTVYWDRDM
Experiment: X-ray crystal structure, […] Å
Settings: CD1d binding groove (A' and F' pockets); spacer lipid in A' pocket

CCCCCCCC(=O)N[C@@H](CO[C@H]1O[C@H](CO)[C@H](O)[C@H](O)[C@H]1O)[C@H](O)[C@H](O)CCCC(=O)NCCCCCCc1ccccc1 [5d, (5R,6S,7S)-5,6-dihydroxy-8-O-(α-D-galactopyranosyl)-7-octanamido-N-(6-phenylhexyl)octanamide]
X-ray crystal structure, 1.75 Å: we determined the crystal structure of the CD1d/5d-complex
